Data from US20240158368A1, “Pyrrolidine Main Protease Inhibitors as Antiviral Agents” (AbbVie Inc., priority 2022, published 2024).

Experiments:
229E Mpro = 229E Mpro (Human coronavirus 229E (HCoV-229E), UniProt P0C6X1); assay type: biochemical
MERS Mpro = MERS Mpro (Middle East respiratory syndrome-related coronavirus (isolate United Kingdom/H123990006/2012) (MERS-CoV) (Betacoronavirus England 1), UniProt K9N7C7); test: biochemical
OC43 Mpro = OC43 Mpro (Human coronavirus OC43 (HCoV-OC43), UniProt P0C6X6); assay type: biochemical
Chain of OC43 Mpro (P0C6X6 3247-3549 limits assumed): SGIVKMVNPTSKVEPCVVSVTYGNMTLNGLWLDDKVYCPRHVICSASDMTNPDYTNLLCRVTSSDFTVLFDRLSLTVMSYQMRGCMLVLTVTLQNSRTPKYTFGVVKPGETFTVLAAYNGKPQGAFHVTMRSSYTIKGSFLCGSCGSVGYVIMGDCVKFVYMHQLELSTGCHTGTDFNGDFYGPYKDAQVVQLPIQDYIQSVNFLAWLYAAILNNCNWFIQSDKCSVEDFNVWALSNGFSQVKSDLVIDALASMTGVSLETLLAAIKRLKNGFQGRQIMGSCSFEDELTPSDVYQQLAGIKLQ

[1] = tested on: SARS-CoV-2 (strain USA-WA1/2020); test: microbe, parasite or virus in culture; assay type: cell-based; conditions: Severe acute respiratory syndrome coronavirus 2; HeLa-ACE2 cells; read-out: Antiviral CoV-2 EC50
in vitro [2] = conditions: human, microsomes, pH 7.4
229E virus = test: organism not typed; assay type: cell-based; conditions: Huh-7, read-out: Antiviral 229E EC50 (μM)
in vitro [3] = conditions: rat, microsomes, pH 7.4
OC43 virus = test: microbe, parasite or virus in culture; assay type: cell-based; conditions: Betacoronavirus 1, OC43, Huh-7, read-out: Antiviral OC43 EC50 (μM)
SARS-CoV-2 Mpro = SARS-CoV-2 Mpro (Severe acute respiratory syndrome coronavirus 2 (2019-nCoV) (SARS-CoV-2), UniProt P0DTD1); assay type: biochemical
in vitro [4] = conditions: PAMPA
SARS-CoV-1 Mpro = SARS-CoV-1 Mpro (Severe acute respiratory syndrome coronavirus (SARS-CoV), UniProt P0C6X7); assay type: biochemical

Chain of MERS Mpro (K9N7C7 3248-3553 limits assumed): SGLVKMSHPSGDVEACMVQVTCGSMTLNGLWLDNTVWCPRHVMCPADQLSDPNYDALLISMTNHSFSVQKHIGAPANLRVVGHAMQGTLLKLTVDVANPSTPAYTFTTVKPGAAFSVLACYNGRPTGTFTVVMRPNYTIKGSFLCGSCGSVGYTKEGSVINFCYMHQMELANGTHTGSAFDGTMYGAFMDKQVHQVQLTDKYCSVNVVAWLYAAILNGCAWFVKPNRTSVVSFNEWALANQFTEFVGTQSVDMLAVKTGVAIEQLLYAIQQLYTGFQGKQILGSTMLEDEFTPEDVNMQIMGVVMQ
Chain of 229E Mpro (P0C6X1 2966-3267 limits assumed): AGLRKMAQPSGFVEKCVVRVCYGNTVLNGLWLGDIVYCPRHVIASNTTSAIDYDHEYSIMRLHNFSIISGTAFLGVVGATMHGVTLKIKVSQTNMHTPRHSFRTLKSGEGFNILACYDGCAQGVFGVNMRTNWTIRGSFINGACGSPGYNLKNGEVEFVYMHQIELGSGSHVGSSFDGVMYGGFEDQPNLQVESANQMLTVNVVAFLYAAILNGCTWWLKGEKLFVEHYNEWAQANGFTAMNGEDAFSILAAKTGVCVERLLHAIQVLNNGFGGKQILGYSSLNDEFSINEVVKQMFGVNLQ

## O=C(N[C@@H]1CCN(c2c(C(=O)N3CCOCC3)cc(Br)cc2C(F)(F)F)C1)c1c(F)c(=O)[nH]c2c(F)cccc12 [Compound 48]
229E Mpro
  EC50: 1.43 nM
MERS Mpro
  EC50: 0.9 nM
OC43 Mpro
  EC50: 0.44 nM
[1]
  EC50: 5.8 nM
In vitro [2]
  CLint scaled: 81.7 mL/min/kg
229E virus
  EC50: 0.044 µM
In vitro [3]
  CLint scaled: 210 mL/min/kg
OC43 virus
  EC50: 0.031 µM
SARS-CoV-2 Mpro
  EC50: 0.43 nM
In vitro [4]
  Papp: 17.9 ×10⁻⁶ cm/s
SARS-CoV-1 Mpro
  EC50: 1.15 nM

## COc1cccc2[nH]c(=O)cc(C(=O)N[C@@H]3CCN(c4c(C(=O)N5CCOCC5)cc(C#N)cc4C(F)(F)F)C3)c12 [Compound 9]
229E Mpro
  EC50: 2.01 nM
MERS Mpro
  EC50: 1.8 nM
OC43 Mpro
  EC50: 2.85 nM
[1]
  EC50: 319 nM
In vitro [2]
  CLint scaled: < 35 mL/min/kg
229E virus
  EC50: 0.11 µM
In vitro [3]
  CLint scaled: < 58.3 mL/min/kg
OC43 virus
  EC50: 0.28 µM
SARS-CoV-2 Mpro
  EC50: 0.47 nM
In vitro [4]
  Papp: 0.34 ×10⁻⁶ cm/s
SARS-CoV-1 Mpro
  EC50: 0.79 nM

## COc1cccc2[nH]c(=O)cc(C(=O)N[C@@H]3CCN(c4c(Cl)cc(C)cc4C(=O)N4CCOCC4)C3)c12 [Compound 85]
229E Mpro
  EC50: 9.16 nM
MERS Mpro
  EC50: 1.54 nM
OC43 Mpro
  EC50: 2.27 nM
[1]
  EC50: 274 nM
In vitro [2]
  CLint scaled: 103 mL/min/kg
229E virus
  EC50: 0.382 µM
In vitro [3]
  CLint scaled: 288 mL/min/kg
OC43 virus
  EC50: 0.21 µM
SARS-CoV-2 Mpro
  EC50: 1.4 nM
In vitro [4]
  Papp: 3.19 ×10⁻⁶ cm/s
SARS-CoV-1 Mpro
  EC50: 3.13 nM
